Assay results reported in patent US20170042991A1, “COMPOSITIONS COMPRISING GLUTEN PEPTIDES AND USES THEREOF” (ImmusanT, Inc., priority 2014, published 2017).
Non-standard residues stand in square brackets, D forms with d. pGlu = O=C1CC[C@@H](C(=O)O)N1

Experiments:
Type in all cases: cell-based, human
[1] = system: PBMC; experiment: Overnight IFNγ ELISpot assay with fresh PBMC (Example 2); settings: Day-6, n = 5
Experimental: Ten HLA-DQ2.5+ adults with celiac disease diagnosed according to the National Institutes of Health Consensus Statement 2004 were enrolled (Table 7).^22 Subjects were required to have followed gluten-free diet for at least one year and without known gluten exposures within the previous two-months. […] Full inclusion and exclusion criteria are described in Table 8. Each of 3 consecutive days subjects consumed 3 cookies that were prepared from approximately 4.5 g wheat gluten, 3 g barley flour protein, and 1.5 g rye flour protein. Blood was collected before and six days after commencing the oral challenge. Blood was collected using a 21G butterfly needle directly into 10 mL lithium heparin tubes (BD Vacutainer® Heparin tube #367880) and QuantiFERON® NIL (0591-0205, Cellestis Ltd., Chadstone VIC 3148 Australia) and QuantiFERON® MITOGEN (0593-0201, Cellestis Ltd.).
Overnight IFNγ ELISpot assays (Human IFN-γ ELISpotPRO kit, transparent, ALP; Mabtech AB, #3420-2APT-10) were performed using PBMC freshly separated from heparinized blood diluted 1:1 in PBS with 2% fetal bovine serum (Stemcell Technologies #07905; Vancouver, BC, V5Z 1B3, Canada) overlaid on density gradient medium (Ficoll-Paque™ PLUS; GE Healthcare Lice Sciences #:17-1440-02) in SepMate™-50 tubes (Stemcell Technologies #15460). PBMC (8 million/mL) were resuspended in serum-free medium with gentamicin and phenol red (X-VIVO™15; Lonza, Walkersville Mass. 21793). PBMC (0.4 million/50 μL/well) and incubated with 50 μL 80% X-vivol5, 0.2% DMSO and 20% PBS in three triplicate wells (“medium only”), or with 50 μL PHA-L 20 μg/ml or peptide at 2× final concentration in 80% X-vivol5, 0.2% DMSO and 20% PBS. Peptide solutions to be added to individual ELISpot wells were prepared in 96-well U-bottom plates (60 μL/well) that were then sealed with adhesive ELISA plate cover slips before replacing the plastic lid and being frozen at −80° C. 96-well plates containing peptide solutions were thawed at room temperature for 10 min while being centrifuged at 300 g immediately prior to being added to ELISpot wells. Peptide pools and mitogen were assessed in triplicate wells, and individual peptides were assessed in duplicate wells. X-VIVO™15 (50 μL) was incubated with 80% X-vivol5, 0.2% DMSO and 20% PBS (50 μL) in triplicate wells (“no PBMC” control). A Zeiss automated ELISpot counter was used to determine spot forming units (SFU) per well (Zellnet Inc., Fort Lee, N.J. 07024). Laboratory staff were unaware of the arrangement of peptide solutions in ELISpot wells during assay setup and plate counting.

[2] = system: whole blood; experiment: 96-well plate whole blood multiplex cytokine release, IP-10 (MAGPIX bead assay, Example 2); settings: for IP-10 WB MAGPIX % max Mean: Day-6, n = 10; for Percent of maximal response, IP-10: after oral gluten challenge
[3] = system: gluten-reactive T cells; experiment: Cytokine release assays taken together (IFNγ ELISpot, whole blood IFNγ and IP-10 release); settings: three cytokine release assays
Experimental: Gluten peptide solutions for addition to whole blood were arranged according to standardized templates in sterile 96-well U-bottom plates (30 μL/well). Plates were sealed with adhesive ELISA plate cover slips before the plastic lid was replaced and being frozen at −80° C. Whole blood assay (WBA) “medium” (1% DMSO in 90% PBS and 9% normal saline), mitogen (PHA-L, Sigma-Aldrich #L2769; St Louis Mo.) 100 μg/ml in WBA medium, and CEF diluted to 10 μg/ml in PBS with a final concentration of 1% DMSO were frozen separately in sterile cryovials. 96-well plates and cryovials with frozen incubation solutions were shipped on dry ice to the clinical site where blood was collected and incubations performed. Solutions were thawed at room temperature for 10 min just before being added to whole blood. 96-well plates were thawed while being centrifuged at 300 g to avoid surface condensation. A multi-channel pipette was used to efficiently transfer 25 μL of peptide solutions from the original 96-well plate to corresponding wells in a fresh sterile 96-well U-bottom plate. Once incubation solutions had been added, 225 μL of whole blood was added to each well and the plate transferred to incubate for 24 h at 37° C. 5% CO2. […] Individual peptides were incubated at a final assay concentration of 5 μM. Final concentrations of individual peptides assessed in P3 was 0.05-50 μg/mL, and in P14 and P13 pools 0.025-25 μM. The P71 pool was tested at between 0.005-10 μg/mL, the highest tested concentration being the maximal possible not exceeding 0.1% DMSO. Peptide pools, mitogen, and medium only were assessed in triplicate wells, and on Day-6 individual peptides were assessed in duplicate wells. Incubations were terminated after 24 h, and 96-well plates centrifuged at 300 g for 10 min. A total of approximately 90 to 120 μL of plasma was removed from each well taking care to avoid red cell contamination, and transferred into corresponding wells of two further 96-well plates (one with 30 μL/well and the residual in the second plate). Plasmas were frozen at −80° C. and later shipped on dry ice to the central lab where IP-10 and IFNγ multiplex bead assays were performed according to manufacturer's instructions using 25 μL plasma per well (Milliplex® MAP Human Cytokine/Chemokine Magnetic Bead Panel #HCYTOMAG-60k-02; EMD Millipore Corp., Billerica, Mass. 01821) and analysed with the Luminex® MAGPIX® System xPONENT® software (Luminex Corporation, Austin Tex. 78727). Plasma cytokine levels for each assay condition were expressed as the mean analyte concentration of each of the three replicate incubations. Laboratory staff were unaware of the arrangement of peptide solutions incubated with during assay setup and plate counting. […]

[4] = system: PBMC; experiment: IFN-gamma ELISpot of PBMC, Day-6 after gluten challenge (Example 1); settings: DQ2.5+ CD
[5] = system: whole blood; experiment: 96-well plate whole blood multiplex cytokine release, IFNγ (MAGPIX bead assay, Example 2); settings: Day-6, n = 8
[6] = Peptide 2 re-synthesised by Pepscan, 10 μg/mL (5.45 μM)
[7] = individual peptides 5 μM, Peptide 2 = CSBio batch

(pE)QPFPQPEQPFPWQP-amide ([pGlu]QPFPQPEQPFPWQP-NH2; SMILES NC(=O)CC[C@H](NC(=O)[C@H](Cc1c[nH]c2ccccc12)NC(=O)[C@@H]1CCCN1C(=O)[C@H](Cc1ccccc1)NC(=O)[C@@H]1CCCN1C(=O)[C@H](CCC(N)=O)NC(=O)[C@H](CCC(=O)O)NC(=O)[C@@H]1CCCN1C(=O)[C@H](CCC(N)=O)NC(=O)[C@@H]1CCCN1C(=O)[C@H](Cc1ccccc1)NC(=O)[C@@H]1CCCN1C(=O)[C@H](CCC(N)=O)NC(=O)[C@@H]1CCC(=O)N1)C(=O)N1CCC[C@H]1C(N)=O) [Peptide 2, CSBio and Pepscan batches tested separately]
IFNγ ELISpot % max Mean [1, 6]: 25 % max
IFNγ ELISpot % max Mean [1, 7]: 19 % max
IP-10 WB MAGPIX % max Mean [2, 6]: 49 % max
Percent of maximal response, IP-10 ([2]; Subject 3, Max. 9492 pg/mL): ≥ 100 % of max
Percent of maximal response, IP-10 ([2]; Subject 4, Max. 9463 pg/mL): ≥ 100 % of max
IP-10 WB MAGPIX % max Mean [2, 7]: 43 % max
activity as a fraction of that of Peptide 14 [3]: one-half to one-fifth
Peptide-specific IFN-gamma ELISpot response ([4]; Subject 1, 10 ug/ml): 0 spot forming units per 0.8 million PBMC
Peptide-specific IFN-gamma ELISpot response ([4]; Subject 2, 10 ug/ml): 1 spot forming units per 0.8 million PBMC
Peptide-specific IFN-gamma ELISpot response ([4]; Subject 3, 10 ug/ml): 2 spot forming units per 0.8 million PBMC
Peptide-specific IFN-gamma ELISpot response ([4]; Subject 4, 10 ug/ml): 17 spot forming units per 0.8 million PBMC
Peptide-specific IFN-gamma ELISpot response ([4]; Subject 5, 10 ug/ml): 0 spot forming units per 0.8 million PBMC
Peptide-specific IFN-gamma ELISpot response ([4]; Subject 6, 10 ug/ml): 2 spot forming units per 0.8 million PBMC
Peptide-specific IFN-gamma ELISpot response ([4]; Subject 7, 10 ug/ml): 2 spot forming units per 0.8 million PBMC
Peptide-specific IFN-gamma ELISpot response ([4]; Subject 8, 10 ug/ml): 4 spot forming units per 0.8 million PBMC
Peptide-specific IFN-gamma ELISpot response ([4]; Subject 9, 10 ug/ml): 1 spot forming units per 0.8 million PBMC
Peptide-specific IFN-gamma ELISpot response ([4]; Subject 10, 10 ug/ml): 0 spot forming units per 0.8 million PBMC
IFNγ WB MAGPIX % max Mean [5, 6]: 27 % max
IFNγ WB MAGPIX % max Mean [5, 7]: 23 % max
